PMC6199744, “Development of Chemical Proteomics for the Folateome and Analysis of the Kinetoplastid Folateome” (ACS Infectious Diseases, 2018)
Read-outs that look alike come from different tables or passages of the source.

What was measured:
Type in all cases: binding
[1] = target: T1, HeLa cell extract proteins (Homo sapiens, UniProt Q969X5)
T1 construct: endogenous in cells; host or cells: HeLa cell extract
T1 sequence (Q969X5 1-290): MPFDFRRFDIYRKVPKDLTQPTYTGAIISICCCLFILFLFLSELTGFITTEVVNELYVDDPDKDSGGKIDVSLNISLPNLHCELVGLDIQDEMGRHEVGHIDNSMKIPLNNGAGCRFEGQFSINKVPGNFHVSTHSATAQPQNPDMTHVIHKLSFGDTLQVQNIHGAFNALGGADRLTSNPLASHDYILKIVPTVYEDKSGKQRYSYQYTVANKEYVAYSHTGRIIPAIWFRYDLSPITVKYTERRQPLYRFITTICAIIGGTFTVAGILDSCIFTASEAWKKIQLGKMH

[2] = target: T2, HeLa cell extract proteins (Homo sapiens, UniProt P49720)
T2 construct: endogenous in cells; host or cells: HeLa cell extract
T2 sequence (P49720 1-205): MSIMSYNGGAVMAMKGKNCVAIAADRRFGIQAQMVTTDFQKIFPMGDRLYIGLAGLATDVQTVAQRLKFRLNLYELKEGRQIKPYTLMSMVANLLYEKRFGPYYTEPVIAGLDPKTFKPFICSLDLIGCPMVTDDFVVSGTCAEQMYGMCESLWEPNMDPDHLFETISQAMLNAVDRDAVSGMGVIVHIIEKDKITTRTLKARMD

[3] = target: T3, HeLa cell extract proteins (Homo sapiens, UniProt P13667)
T3 construct: endogenous in cells; host or cells: HeLa cell extract
T3 sequence (P13667 21-645): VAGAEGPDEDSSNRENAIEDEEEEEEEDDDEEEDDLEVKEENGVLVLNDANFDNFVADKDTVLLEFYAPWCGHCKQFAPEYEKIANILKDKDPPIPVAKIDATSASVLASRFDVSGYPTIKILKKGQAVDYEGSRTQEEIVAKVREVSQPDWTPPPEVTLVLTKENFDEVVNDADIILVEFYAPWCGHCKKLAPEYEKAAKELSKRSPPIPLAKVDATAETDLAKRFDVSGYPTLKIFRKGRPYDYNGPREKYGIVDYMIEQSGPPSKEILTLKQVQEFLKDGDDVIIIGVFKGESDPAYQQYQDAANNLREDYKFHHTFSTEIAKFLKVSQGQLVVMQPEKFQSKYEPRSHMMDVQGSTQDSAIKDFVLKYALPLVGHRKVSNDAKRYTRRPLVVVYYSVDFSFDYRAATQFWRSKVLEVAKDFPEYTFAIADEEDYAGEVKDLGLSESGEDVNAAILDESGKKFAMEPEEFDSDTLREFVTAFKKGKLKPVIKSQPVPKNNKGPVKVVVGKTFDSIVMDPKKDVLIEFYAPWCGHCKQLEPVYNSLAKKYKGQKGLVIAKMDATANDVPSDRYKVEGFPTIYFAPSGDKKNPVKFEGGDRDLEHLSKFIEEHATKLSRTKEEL

[4] = target: T4, HeLa cell extract proteins (Homo sapiens, UniProt Q15008)
T4 construct: endogenous in cells; host or cells: HeLa cell extract
T4 sequence (Q15008 1-389): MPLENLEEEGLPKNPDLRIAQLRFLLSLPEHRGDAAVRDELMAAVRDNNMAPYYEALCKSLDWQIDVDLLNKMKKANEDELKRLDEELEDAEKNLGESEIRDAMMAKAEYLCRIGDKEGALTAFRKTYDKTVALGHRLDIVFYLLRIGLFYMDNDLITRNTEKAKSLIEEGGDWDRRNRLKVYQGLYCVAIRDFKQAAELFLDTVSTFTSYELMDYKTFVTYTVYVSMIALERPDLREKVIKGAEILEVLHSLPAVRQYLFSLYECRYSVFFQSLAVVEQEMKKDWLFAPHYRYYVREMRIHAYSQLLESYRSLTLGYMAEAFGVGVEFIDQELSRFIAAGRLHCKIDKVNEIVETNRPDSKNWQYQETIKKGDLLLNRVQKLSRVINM

[5] = target: T5, HeLa cell extract proteins (Homo sapiens, UniProt Q9H903)
T5 construct: endogenous in cells; host or cells: HeLa cell extract
T5 sequence (Q9H903 1-347): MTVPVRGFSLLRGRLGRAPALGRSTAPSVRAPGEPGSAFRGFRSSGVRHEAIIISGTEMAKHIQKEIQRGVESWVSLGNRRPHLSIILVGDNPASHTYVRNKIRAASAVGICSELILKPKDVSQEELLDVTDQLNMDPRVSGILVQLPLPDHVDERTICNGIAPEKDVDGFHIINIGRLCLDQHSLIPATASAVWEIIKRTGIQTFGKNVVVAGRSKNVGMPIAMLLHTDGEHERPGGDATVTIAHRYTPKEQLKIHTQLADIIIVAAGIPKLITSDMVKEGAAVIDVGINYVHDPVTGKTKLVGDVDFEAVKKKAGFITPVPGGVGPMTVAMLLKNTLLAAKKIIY

[6] = target: T6, HeLa cell extract proteins (Homo sapiens, UniProt Q9UHI6)
T6 construct: endogenous in cells; host or cells: HeLa cell extract
T6 sequence (Q9UHI6 1-824): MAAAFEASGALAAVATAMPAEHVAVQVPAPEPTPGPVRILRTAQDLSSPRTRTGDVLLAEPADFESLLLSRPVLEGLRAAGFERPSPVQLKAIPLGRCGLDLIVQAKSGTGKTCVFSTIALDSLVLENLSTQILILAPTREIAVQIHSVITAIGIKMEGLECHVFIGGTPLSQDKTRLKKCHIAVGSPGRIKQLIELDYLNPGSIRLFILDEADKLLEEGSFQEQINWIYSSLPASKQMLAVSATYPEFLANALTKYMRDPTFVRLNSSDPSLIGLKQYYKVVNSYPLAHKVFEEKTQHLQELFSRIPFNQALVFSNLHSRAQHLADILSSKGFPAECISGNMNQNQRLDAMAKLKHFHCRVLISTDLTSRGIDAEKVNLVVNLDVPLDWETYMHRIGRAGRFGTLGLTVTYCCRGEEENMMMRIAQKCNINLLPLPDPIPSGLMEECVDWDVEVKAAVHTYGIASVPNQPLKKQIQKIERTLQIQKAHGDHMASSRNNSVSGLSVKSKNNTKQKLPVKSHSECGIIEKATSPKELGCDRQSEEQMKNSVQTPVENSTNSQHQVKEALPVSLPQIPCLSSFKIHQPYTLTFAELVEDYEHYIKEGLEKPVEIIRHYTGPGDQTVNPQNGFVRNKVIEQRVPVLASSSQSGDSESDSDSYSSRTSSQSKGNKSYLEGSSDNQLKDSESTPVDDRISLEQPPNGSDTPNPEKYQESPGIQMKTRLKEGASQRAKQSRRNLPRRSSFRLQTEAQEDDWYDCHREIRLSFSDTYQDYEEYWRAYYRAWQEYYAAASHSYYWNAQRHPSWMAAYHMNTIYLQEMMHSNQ

[7] = HeLa, protein PDIA4 (PROTEIN DISULFIDE-ISOMERASE A4 PRECURSOR.)

SMILES	fold changes relative to vehicle control ([1]; protein ERGIC1, HeLa)	fold changes relative to vehicle control ([2]; HeLa, protein PSMB3)	fold changes relative to vehicle control ([3]; protein PDIA4, HeLa)	fold changes relative to vehicle control ([4]; HeLa, protein PSMD6)	fold changes relative to vehicle control ([5]; HeLa, protein MTHFD2L)	fold changes relative to vehicle control ([6]; HeLa, protein DDX20)	fold changes relative to vehicle control [1]	fold changes relative to vehicle control [2]	fold changes relative to vehicle control [3]	fold changes relative to vehicle control [4]	fold changes relative to vehicle control [5]	fold changes relative to vehicle control [6]	fold changes relative to vehicle control ([1]; captured protein ERGIC1, HeLa)	fold changes relative to vehicle control ([2]; protein PSMB3, HeLa)	fold changes relative to vehicle control [3, 7]	fold changes relative to vehicle control ([4]; protein PSMD6, HeLa)	fold changes relative to vehicle control ([6]; captured protein DDX20, HeLa)
Nc1nc2c(c(=O)[nH]1)N(C=O)C(CNc1ccc(C(=O)N[C@@H](CCC(=O)O)C(=O)O)cc1)CN2 (stereo partly drawn) [LEU, leucovorin]	0.77	1.13	0.93	0.77	0.9	0.93											
Nc1nc2[nH]cc(CCc3ccc(C(=O)N[C@@H](CCC(=O)O)C(=O)O)cc3)c2c(=O)[nH]1 [PTX, pemetrexed]							0.85	0.99	1.04	0.69	0.9	0.97					
CCCCCCOc1ccc(Cc2cnc(N)nc2N)cc1 [compound 1]					0.3								0.94	1.13	1.76 fold	0.94	0.89
CCCCCCOc1cccc(Cc2cnc(N)nc2N)c1 [compound 2]					0.89								1.02	1.53	2.84 fold	1.64	1
Nc1nc2cccc(-c3ccccc3)c2n1Cc1ccc(Cl)c(Cl)c1 [compound 3]					1.07								1.1	0.92	0.75 fold	1.72	0.92
NCCOCCOCC(=O)Nc1nc2ncc(CNc3ccc(C(=O)NC(CCC(=O)O)C(=O)O)cc3)nc2c(=O)[nH]1 (stereo not drawn) [compound 6]	0.86	1.12	1.14	0.89	0.97	0.98											
NCCCNc1ccc(C(=O)NC(CCC(=O)O)C(=O)O)cc1 (stereo not drawn) [compound 7]	1.31	0.92	0.87	0.82	1	0.94											
